Converted amounts (≈) assume the structure as drawn.
Tests used:
[1] = tested on: MRSA ATCC 43300; assay: MIC/MBC by broth dilution (CLSI); format: cell-based, Staphylococcus aureus; conditions: Staphylococcus aureus; for MIC: MRSA ATCC 43300, broth dilution, 24 h, 37 °C, read-out: MIC; for MBC: MRSA ATCC 43300, 99.9% of the bacteria killed
Experimental: (§1) The in vitro antimicrobial activity of the pleuromutilin derivatives was assessed against MRSA ATCC 43300, S. aureus ATCC 29213, S. aureus 144 and S. aureus AD3 according to the Clinical and Laboratory Standards Institute (CLSI). Tiamulin was used as a positive control drug. The results were summarized as the minimum inhibitory concentration (MIC) and the minimum bactericidal concentration (MBC) in Table 1 and Table 2. In addition, MIC results for the pleuromutilin derivatives against four Gram-negative bacteria are supplied in Tables S2 and S3.
(§2) The MIC and MBC values of the synthesized novel pleuromutilin derivatives against MRSA ATCC 43300, S. aureus ATCC 29213, S. aureus 144 and S. aureus AD3 were measured. Tiamulin was used as a positive control drug. The MIC and MBC values were manipulated by broth dilution according to the Clinical and Laboratory Standards (CLSI). Each compound to be measured was dissolved in a solution of 95% deionized water, 2.5% dimethyl sulfoxide (DMSO) and 2.5% Tween-80 with a concentration of 1280 µg/mL. Subsequently, serial twofold dilutions were made in a concentration range from 64 µg/mL to 0.0625 µg/mL. The working bacterial suspension was inoculated into each well, which provided the final inoculum density of 5 × 10^5 CFU/mL. Three parallel experiments were performed for each compound.
(§3) Overall, 25 µL of the bacterial solution from the wells with no obvious bacterial growth was inoculated on MH agar plates. Then, the inoculated MH agar plates were further cultured at 37 °C for 24 h.

[2] = tested on: S. aureus AD3; assay: MIC/MBC by broth dilution (CLSI); format: cell-based; conditions: Staphylococcus aureus, S. aureus AD3 (clinical strain)
Experimental: as §1, §2, §3

[3] = tested on: S. aureus 144; assay: MIC/MBC by broth dilution (CLSI); format: cell-based; conditions: Staphylococcus aureus; S. aureus 144 (clinical strain)
Experimental: as §1, §2, §3

[4] = tested on: S. aureus ATCC 29213; assay: MIC/MBC by broth dilution (CLSI); format: cell-based; conditions: Staphylococcus aureus, ATCC29213; for MIC: S. aureus ATCC 29213, broth dilution, 24 h, 37 °C; for MBC: S. aureus ATCC 29213
Experimental: as §1, §2, §3

SMILES | MIC [1] [µg/mL] | MIC [2] [µg/mL] | MIC [3] [µg/mL] | MIC [4] [µg/mL] | melting point [°C] | MIC ([2]; 24 h) [µg/mL] | MBC [1] [µg/mL] | MBC ([2]; 24 h) [µg/mL] | MBC [3] [µg/mL] | MBC [4] [µg/mL] | MBC [2] [µg/mL]
C=C[C@]1(C)C[C@@H](OC(=O)CSc2ccc(Nc3nc(Cl)nc4c3cnn4-c3ccc(F)cc3F)cc2)[C@]2(C)[C@H](C)CC[C@]3(CCC(=O)[C@H]32)[C@@H](C)[C@@H]1O [Compound 20c, 22-[4-(6-Chloro-1-(2,4-difluorophenyl)-1H-pyrazolo[3,4-d]pyrimidine-4-yl)amino-Phenylsulfanyl]-22-deoxypleuromutilin] | > 64 | > 64 | > 64 | > 64 | 132 to 134 | – | – | – | – | – | –
C=C[C@]1(C)C[C@@H](OC(=O)CSc2ccc(Nc3nc(Cl)nc4c3cnn4-c3cccc(Cl)c3)cc2)[C@]2(C)[C@H](C)CC[C@]3(CCC(=O)[C@H]32)[C@@H](C)[C@@H]1O [Compound 24c, 22-[4-(6-Chloro-1-(3-chlorophenyl)-1H-pyrazolo[3,4-d]pyrimidine-4-yl)amino-Phenylsulfanyl]-22-deoxypleuromutilin] | > 64 | > 64 | > 64 | > 64 | 121 to 124 | – | – | – | – | – | –
C=C[C@]1(C)C[C@@H](OC(=O)CSc2ccc(Nc3nc(Cl)nc4c3cnn4-c3cc(F)ccc3F)cc2)[C@]2(C)[C@H](C)CC[C@]3(CCC(=O)[C@H]32)[C@@H](C)[C@@H]1O [Compound 21c, 22-[4-(6-Chloro-1-(2,5-difluorophenyl)-1H-pyrazolo[3,4-d]pyrimidine-4-yl)amino-Phenylsulfanyl]-22-deoxypleuromutilin] | > 64 | > 64 | > 64 | > 64 | 115 to 118 | – | – | – | – | – | –
C=C[C@]1(C)C[C@@H](OC(=O)CNc2nc(Cl)nc3c2cnn3-c2ccc(Cl)cc2)[C@]2(C)[C@H](C)CC[C@]3(CCC(=O)[C@H]32)[C@@H](C)[C@@H]1O [Compound 25b, 22-[(6-Chloro-1-(4-chlorophenyl)-1H-pyrazolo[3,4-d]pyrimidine-4-yl)amino]-22-deoxypleuromutilin] | > 64 | > 64 | > 64 | > 64 | 107 to 111 | – | – | – | – | – | –
C=C[C@]1(C)C[C@@H](OC(=O)CSc2ccc(Nc3nc(Cl)nc4c3cnn4-c3ccc(C)c(C)c3)cc2)[C@]2(C)[C@H](C)CC[C@]3(CCC(=O)[C@H]32)[C@@H](C)[C@@H]1O [Compound 14c, 22-[4-(6-Chloro-1-(3,4-dimethylphenyl)-1H-pyrazolo[3,4-d]pyrimidine-4-yl)amino-Phenylsulfanyl]-22-deoxypleuromutilin] | > 64 | > 64 | > 64 | > 64 | 103 to 105 | – | – | – | – | – | –
C=C[C@]1(C)C[C@@H](OC(=O)CSc2ccc(Nc3nc(Cl)nc4c3cnn4-c3cc(Cl)cc(Cl)c3)cc2)[C@]2(C)[C@H](C)CC[C@]3(CCC(=O)[C@H]32)[C@@H](C)[C@@H]1O [Compound 26c, 22-[4-(6-Chloro-1-(3,5-dichlorophenyl)-1H-pyrazolo[3,4-d]pyrimidine-4-yl)amino-Phenylsulfanyl]-22-deoxypleuromutilin] | > 64 | > 64 | > 64 | > 64 | 137 to 139 | – | – | – | – | – | –
C=C[C@]1(C)C[C@@H](OC(=O)CNc2nc(Cl)nc3c2cnn3-c2cc(F)ccc2F)[C@]2(C)[C@H](C)CC[C@]3(CCC(=O)[C@H]32)[C@@H](C)[C@@H]1O [Compound 21b, 22-[(6-Chloro-1-(2,5-difluorophenyl)-1H-pyrazolo[3,4-d]pyrimidine-4-yl)amino]-22-deoxypleuromutilin] | > 64 | > 64 | > 64 | > 64 | 121 to 125 | – | – | – | – | – | –
C=C[C@]1(C)C[C@@H](OC(=O)CNc2nc(Cl)nc3c2cnn3-c2cccc(OC)c2)[C@]2(C)[C@H](C)CC[C@]3(CCC(=O)[C@H]32)[C@@H](C)[C@@H]1O [Compound 17b, 22-[(6-Chloro-1-(3-methoxyphenyl)-1H-pyrazolo[3,4-d]pyrimidine-4-yl)amino]-22-deoxypleuromutilin] | > 64 | > 64 | > 64 | > 64 | 99 to 104 | – | – | – | – | – | –

Continued, in another order:

MIC [1] [µg/mL] | MIC [2] [µg/mL] | MIC [3] [µg/mL] | MIC [4] [µg/mL] | melting point [°C] | MIC ([2]; 24 h) [µg/mL] | SMILES | MBC [1] [µg/mL] | MBC ([2]; 24 h) [µg/mL] | MBC [3] [µg/mL] | MBC [4] [µg/mL] | MBC [2] [µg/mL]
> 64 | > 64 | > 64 | > 64 | 107 to 110 | – | C=C[C@]1(C)C[C@@H](OC(=O)CNc2nc(Cl)nc3c2cnn3-c2ccccc2F)[C@]2(C)[C@H](C)CC[C@]3(CCC(=O)[C@H]32)[C@@H](C)[C@@H]1O [Compound 18b, 22-[(6-Chloro-1-(2-fluorophenyl)-1H-pyrazolo[3,4-d]pyrimidine-4-yl)amino]-22-deoxypleuromutilin] | – | – | – | – | –
8 (≈ 11 µM) | – | 16 (≈ 22 µM) | 8 (≈ 11 µM) | 101 to 105 | 4 (≈ 5.49 µM) | C=C[C@]1(C)C[C@@H](OC(=O)CSc2ccc(Nc3nc(Cl)nc4c3cnn4-c3ccc(C)cc3)cc2)[C@]2(C)[C@H](C)CC[C@]3(CCC(=O)[C@H]32)[C@@H](C)[C@@H]1O [Compound 13c, 22-[4-(6-Chloro-1-(4-methylphenyl)-1H-pyrazolo[3,4-d]pyrimidine-4-yl)amino-phenylsulfanyl]-22-deoxypleuromutilin] | > 64 | > 64 | > 64 | > 64 | –
> 64 | > 64 | > 64 | > 64 | 95 to 100 | – | C=C[C@]1(C)C[C@@H](OC(=O)CNc2nc(Cl)nc3c2cnn3-c2cc(C)cc(C)c2)[C@]2(C)[C@H](C)CC[C@]3(CCC(=O)[C@H]32)[C@@H](C)[C@@H]1O [Compound 15b, 22-[(6-Chloro-1-(3,5-dimethylphenyl)-1H-pyrazolo[3,4-d]pyrimidine-4-yl)amino]-22-deoxypleuromutilin] | – | – | – | – | –
> 64 | > 64 | > 64 | > 64 | 117 to 119 | – | C=C[C@]1(C)C[C@@H](OC(=O)CNc2nc(Cl)nc3c2cnn3-c2cccc(Cl)c2)[C@]2(C)[C@H](C)CC[C@]3(CCC(=O)[C@H]32)[C@@H](C)[C@@H]1O [Compound 24b, 22-[(6-Chloro-1-(3-chlorophenyl)-1H-pyrazolo[3,4-d]pyrimidine-4-yl)amino]-22-deoxypleuromutilin] | – | – | – | – | –
32 (≈ 50.5 µM) | 16 (≈ 25.2 µM) | 32 (≈ 50.5 µM) | 32 (≈ 50.5 µM) | 101 to 103 | – | C=C[C@]1(C)C[C@@H](OC(=O)CNc2nc(Cl)nc3c2cnn3-c2ccc(CC)cc2)[C@]2(C)[C@H](C)CC[C@]3(CCC(=O)[C@H]32)[C@@H](C)[C@@H]1O [Compound 16b, 22-[(6-Chloro-1-(4-ethylphenyl)-1H-pyrazolo[3,4-d]pyrimidine-4-yl)amino]-22-deoxypleuromutilin] | > 64 | – | > 64 | > 64 | > 64
8 (≈ 12.9 µM) | 4 (≈ 6.45 µM) | 8 (≈ 12.9 µM) | 8 (≈ 12.9 µM) | 97 to 99 | – | C=C[C@]1(C)C[C@@H](OC(=O)CNc2nc(Cl)nc3c2cnn3-c2cccc(C)c2)[C@]2(C)[C@H](C)CC[C@]3(CCC(=O)[C@H]32)[C@@H](C)[C@@H]1O [Compound 12b, 22-[(6-Chloro-1-(3-methylphenyl)-1H-pyrazolo[3,4-d]pyrimidine-4-yl)amino]-22-deoxypleuromutilin] | 32 (≈ 51.6 µM) | – | 32 (≈ 51.6 µM) | 32 (≈ 51.6 µM) | 16 (≈ 25.8 µM)
16 (≈ 25.2 µM) | 16 (≈ 25.2 µM) | 16 (≈ 25.2 µM) | 16 (≈ 25.2 µM) | 99 to 103 | – | C=C[C@]1(C)C[C@@H](OC(=O)CNc2nc(Cl)nc3c2cnn3-c2ccc(C)c(C)c2)[C@]2(C)[C@H](C)CC[C@]3(CCC(=O)[C@H]32)[C@@H](C)[C@@H]1O [Compound 14b, 22-[(6-Chloro-1-(3,4-dimethylphenyl)-1H-pyrazolo[3,4-d]pyrimidine-4-yl)amino]-22-deoxypleuromutilin] | > 64 | – | > 64 | > 64 | > 64
16 (≈ 25.6 µM) | – | 32 (≈ 51.3 µM) | 16 (≈ 25.6 µM) | 112 to 115 | 8 (≈ 12.8 µM) | C=C[C@]1(C)C[C@@H](OC(=O)CNc2nc(Cl)nc3c2cnn3-c2ccc(F)cc2)[C@]2(C)[C@H](C)CC[C@]3(CCC(=O)[C@H]32)[C@@H](C)[C@@H]1O [Compound 19b, 22-[(6-Chloro-1-(4-fluorophenyl)-1H-pyrazolo[3,4-d]pyrimidine-4-yl)amino]-22-deoxypleuromutilin] | > 64 | > 64 | > 64 | > 64 | –
